We go through 7 molecules from BindingDB's records for doi:10.1021/jm960626t (Dupont Pharmaceuticals, 1997).

By IC50 is commonly meant the point on the concentration scale where inhibition reaches its midpoint. A lower IC50 goes with greater potency in that assay.

Counter-ions that a name gives are not always drawn.

The assay deals with Integrin alpha-IIb/beta-3 (Homo sapiens, UniProt P08514+P05106). Kind of assay: Inhibition of human platelet aggregation induced by ADP.
Integrin alpha-IIb/beta-3, sequence (P05106 27-788 limits assumed): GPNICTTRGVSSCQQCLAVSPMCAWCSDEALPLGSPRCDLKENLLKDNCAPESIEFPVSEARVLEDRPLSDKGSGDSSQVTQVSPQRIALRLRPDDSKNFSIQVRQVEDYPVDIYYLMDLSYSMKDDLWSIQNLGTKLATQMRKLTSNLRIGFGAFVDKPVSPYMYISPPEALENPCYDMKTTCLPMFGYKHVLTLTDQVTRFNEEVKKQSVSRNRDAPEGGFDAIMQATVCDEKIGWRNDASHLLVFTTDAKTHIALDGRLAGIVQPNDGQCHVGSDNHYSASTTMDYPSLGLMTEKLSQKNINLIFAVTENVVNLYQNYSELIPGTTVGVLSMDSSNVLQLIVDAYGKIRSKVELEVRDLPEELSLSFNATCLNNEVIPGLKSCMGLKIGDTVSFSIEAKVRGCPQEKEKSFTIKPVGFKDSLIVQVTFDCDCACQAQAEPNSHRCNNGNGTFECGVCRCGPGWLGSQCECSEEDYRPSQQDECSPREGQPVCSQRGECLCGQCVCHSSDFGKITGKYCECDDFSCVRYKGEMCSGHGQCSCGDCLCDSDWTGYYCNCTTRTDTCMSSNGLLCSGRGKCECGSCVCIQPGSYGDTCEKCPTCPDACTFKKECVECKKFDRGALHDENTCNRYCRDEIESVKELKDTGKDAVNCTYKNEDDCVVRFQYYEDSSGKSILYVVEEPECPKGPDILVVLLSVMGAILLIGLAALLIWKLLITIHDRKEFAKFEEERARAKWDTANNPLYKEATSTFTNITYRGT
Integrin alpha-IIb/beta-3, sequence (P08514 32-887 limits assumed): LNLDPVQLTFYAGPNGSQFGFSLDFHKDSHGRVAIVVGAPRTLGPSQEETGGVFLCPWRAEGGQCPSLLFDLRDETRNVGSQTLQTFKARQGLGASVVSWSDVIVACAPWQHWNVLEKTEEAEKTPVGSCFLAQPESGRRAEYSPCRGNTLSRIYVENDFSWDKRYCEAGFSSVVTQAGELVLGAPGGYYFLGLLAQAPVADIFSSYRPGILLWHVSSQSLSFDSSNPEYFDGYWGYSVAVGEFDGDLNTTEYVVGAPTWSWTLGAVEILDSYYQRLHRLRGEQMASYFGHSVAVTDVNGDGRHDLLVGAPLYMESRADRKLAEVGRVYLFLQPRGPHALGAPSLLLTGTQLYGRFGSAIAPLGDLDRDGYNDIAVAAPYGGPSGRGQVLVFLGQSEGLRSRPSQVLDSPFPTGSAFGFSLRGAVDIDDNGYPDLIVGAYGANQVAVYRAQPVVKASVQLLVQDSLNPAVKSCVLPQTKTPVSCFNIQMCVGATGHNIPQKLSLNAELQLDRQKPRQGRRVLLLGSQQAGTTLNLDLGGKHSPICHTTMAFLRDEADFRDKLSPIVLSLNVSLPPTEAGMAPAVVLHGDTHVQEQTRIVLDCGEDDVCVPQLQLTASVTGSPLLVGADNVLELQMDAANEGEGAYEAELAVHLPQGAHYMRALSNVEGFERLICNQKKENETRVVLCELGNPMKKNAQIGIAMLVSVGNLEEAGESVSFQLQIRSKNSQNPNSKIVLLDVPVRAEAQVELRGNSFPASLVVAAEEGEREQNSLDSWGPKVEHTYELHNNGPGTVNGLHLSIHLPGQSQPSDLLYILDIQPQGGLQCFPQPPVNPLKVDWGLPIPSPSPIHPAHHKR
Integrin alpha-IIb/beta-3, sequence (P08514 891-1039 limits assumed): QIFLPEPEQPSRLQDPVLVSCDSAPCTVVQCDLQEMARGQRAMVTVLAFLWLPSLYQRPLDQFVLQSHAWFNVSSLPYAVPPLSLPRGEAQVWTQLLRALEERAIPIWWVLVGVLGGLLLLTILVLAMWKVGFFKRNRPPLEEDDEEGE
With `O=C(NC(C(=O)O)C1CC(c2ccc(OCCC3CCNCC3)cc2)=NO1)OCc1ccccc1` (configuration not stated) [Benzyloxycarbonylamino-{3-[4-(2-piperidin-4-yl-ethoxy)-phenyl]-4,5-dihydro-isoxazol-5-yl}-acetic acid], the IC50 turned out to be 23 µM.

The molecule `O=C(O)CCNC(=O)CC1CC(CC2CCNCC2)=NO1` (configuration not stated) [3-[2-(3-Piperidin-4-ylmethyl-4,5-dihydro-isoxazol-5-yl)-acetylamino]-propionic acid] yielded an IC50 greater than 100 µM.

`O=C(O)CC1CC(c2ccc(OCCC3CCNCC3)cc2)=NO1` (configuration not stated) [{3-[4-(2-Piperidin-4-yl-ethoxy)-phenyl]-4,5-dihydro-isoxazol-5-yl}-acetic acid] returned an IC50 of 8.3 µM. This lies in the single-digit micromolar range.

The molecule `N=C(N)c1ccc(C2=NO[C@@H](CC(=O)NCCC(=O)O)C2)cc1` gave an IC50 of 0.86 µM. Against the preceding molecule, the IC50 is about 9.7-fold lower.

The molecule `O=C(O)CCNC(=O)CC1CC(CCC2CCNCC2)=NO1` (configuration not stated) [3-{2-[3-(2-Piperidin-4-yl-ethyl)-4,5-dihydro-isoxazol-5-yl]-acetylamino}-propionic acid] had an IC50 of 0.63 µM.

In turn, `N=C(N)c1ccc(C2=NO[C@H](CC(=O)NCCC(=O)O)C2)cc1` [3-{2-[(S)-3-(4-Carbamimidoyl-phenyl)-4,5-dihydro-isoxazol-5-yl]-acetylamino}-propionic acid; TFA] gave an IC50 of 0.06 µM.

For the molecule `O=C(O)CCC1CC(c2ccc(OCC3CCNCC3)cc2)=NO1` (configuration not stated) [3-{3-[4-(Piperidin-4-ylmethoxy)-phenyl]-4,5-dihydro-isoxazol-5-yl}-propionic acid], the IC50 amounted to 18 µM. Against the preceding molecule, the IC50 is about 300-fold higher.
